≈ marks a conversion by molar mass, not a printed value.
What was measured:
[1] = tested on: Human immunodeficiency virus 1; assay: Antiviral activity against HIV-1 infected in HEK293T cells; assay type: functional, organism-based; settings: Human immunodeficiency virus 1, HEK-293T
[2] = Cytotoxicity against human C8166 cells assessed as inhibition of cell growth by MTT assay; assay type: toxicity, cell-based
[3] = tested on: Human immunodeficiency virus 1; assay: Antiviral activity against HIV-1 infected in human C8166 cells assessed as inhibition of viral replication; assay type: functional, organism-based; settings: Human immunodeficiency virus 1, C8166
[4] = Therapeutic index, ratio of CC50 for cytotoxicity against human C8166 cells to EC50 for antiviral activity against HIV-1 infected in C8166 cells; assay type: toxicity, cell-based; settings: read-out: Ratio CC50/EC50
[5] = Cytotoxicity against HCV RNA-transfected human Huh7.5 cells assessed as reduction in cell viability; assay type: toxicity, cell-based, Huh-7.5; settings: HCV RNA-transfected Huh7.5 cells
Hepatitis C virus [6] = assay: Antiviral activity against Hepatitis C virus genotype 1 infected in Bart79I RNA-transfected human Huh7.5 cells assessed as reduction in viral replication incubated for 24 to 72 hrs by RT-PCR assay; assay type: functional, organism-based, Hepacivirus hominis; settings: genotype 1, Huh7.5
Hepatitis C virus [7] = assay: Antiviral activity against Hepatitis C virus genotype 2 infected in human Huh7.5 cells assessed as reduction in viral replication by RT-PCR assay; assay type: functional, organism-based, Hepacivirus hominis; settings: genotype 2, Huh7.5
Hepatitis C virus [8] = assay: Antiviral activity against Hepatitis C virus genotype 2 infected in renilla luciferase-J6/JFH1 RNA-transfected human Huh7.5 cells assessed as reduction in viral replication incubated for 72 hrs by qRT-PCR analysis; assay type: functional, organism-based, Hepacivirus hominis; settings: genotype 2, Huh7.5, 72 h
Influenza A virus [9] = assay: Antiviral activity against influenza A virus A/Guangdong/243/72 ([…]) infected in MDCK cells assessed as inhibition of virus-induced cytopathic effect; assay type: functional, organism-based
[10] = Cytotoxicity against human Huh7.5 cells infected with Hepatitis C virus assessed as reduction in cell viability; assay type: toxicity, cell-based, Huh-7.5
Hepatitis C virus [11] = assay: Antiviral activity against Hepatitis C virus infected in human Huh7.5 cells assessed as reduction in viral replication; assay type: functional, organism-based, Hepacivirus hominis
[12] = Cytotoxicity against HEK293T cells; assay type: toxicity, cell-based, HEK-293T; settings: human, read-out: TC50 (the source's name)
[13] = Selectivity index, ratio of CC50 for cytotoxicity against MDCK cells to IC50 for influenza A virus A/Guangdong/243/72 ([…]) infected in MDCK cells; assay type: toxicity, cell-based; settings: dog, read-out: Ratio CC50/IC50
Influenza A virus [14] = assay: Antiviral activity against influenza A virus A/PR/8/34 (H1N1) infected in human A549 cells assessed as inhibition of RANTES production incubated for 48 hrs by ELISA; assay type: functional, organism-based; settings: A549, 48 h
[15] = Cytotoxicity against human A549 cells assessed as reduction in cell viability by Alamar blue assay; assay type: toxicity, cell-based
[16] = Cytotoxicity against human MT4 cells expressing eGFP under control of HIV-1 LTR promoter sequence; assay type: toxicity, cell-based
[17] = Inhibition of HIV-1 integrase catalysed 3' processing activity by densitometric analysis; set-up: species or system Human immunodeficiency virus 1
[18] = Inhibition of recombinant HIV-1 integrase catalysed strand transfer activity measured after 60 mins by electrochemiluminescent plate-based assay; set-up: species or system Human immunodeficiency virus 1
[19] = Selectivity index, ratio of CC50 for cytotoxicity against human MT4 cells expressing eGFP under control of HIV-1 LTR promoter sequence to EC50 for antiviral activity against HIV-1 infected in human MT4 cells expressing eGFP under control of HIV-1 LTR promoter sequence; assay type: toxicity, cell-based; settings: read-out: Ratio CC50/EC50
[20] = tested on: Human immunodeficiency virus 1; assay: Antiviral activity against VSV pseudo-typed HIV-1 infected in human MT4 cells expressing eGFP under control of HIV-1 LTR promoter sequence; assay type: functional, organism-based; settings: Human immunodeficiency virus 1, MT4

For Oc1ccc(-n2cc(-c3cc(O)cc(O)c3)nn2)cc1, which EC50 [1] is on record?
The EC50 was greater than 75 µM.

For O=S(=O)([O-])Oc1cc(/C=C/c2ccc(O)cc2)cc(O[C@@H]2O[C@H](CO)[C@@H](O)[C@H](O)[C@H]2O)c1.[Na+], which CC50 [2] is on record?
The CC50 was 527 µg/mL.

What about the EC50 [3] of the same compound?
Its EC50 is 89.7 µg/mL.

And the selectivity ratio [4]?
Its selectivity ratio is 5.87.

Which CC50 [5] does the source give for Oc1ccc(/C=C/c2cc(O)cc3c2C(c2cc(O)cc(O)c2)C(c2ccc(O)cc2)O3)cc1 (racemic) here?
Its CC50 is greater than 10 µM.

And the EC50 (Hepatitis C virus [6])?
The EC50 was 1.7 µM.

What about the EC50 (Hepatitis C virus [7]) of the same compound?
The EC50 was 9.3 µM.

And the EC50 (Hepatitis C virus [8])?
Its EC50 is 0.2 µM.

What does the source list for O=S(=O)([O-])O[C@H]1[C@H](Oc2cc(O)cc(/C=C/c3ccc(O)cc3)c2)O[C@H](CO)[C@@H](O)[C@@H]1O.[Na+]?
CC50 [2]: > 2000 µg/mL; EC50 [3]: 153 µg/mL; selectivity ratio [4]: > 13

For NC(=O)c1ncn([C@@H]2O[C@H](CO)[C@@H](O)[C@H]2O)n1 [RIBAVIRIN], which IC50 (Influenza A virus [9]) is on record?
Its IC50 is 5.54 µg/mL (≈ 22.7 µM).

Which EC50 [1] does the source give for Oc1ccc(-c2cnc(-c3cc(O)cc(O)c3)nc2)cc1 here?
The EC50 was greater than 75 µM.

Which EC50 [1] does the source give for Oc1ccc(-c2ncc(-c3cc(O)cc(O)c3)cn2)cc1 here?
The EC50 was greater than 75 µM.

With Oc1ccc([C@@H]2c3c(O)cc(O)cc3[C@H]3c4c(cc(O)cc4[C@@H]2O)O[C@@H]3c2ccc(O)cc2)cc1 as the compound, how does the CC50 [10] read?
The CC50 was greater than 10 µM.

What about the EC50 (Hepatitis C virus [11]) of the same compound?
The EC50 was 5.74 µM.

Which results are given for Oc1ccc(-c2oc3ccccc3c2-c2cc(O)cc(O)c2)cc1?
EC50 [1]: 65.1 µM; CC50 [12]: 108 µM

What does the source list for Oc1ccc(-c2ccc(-c3cc(O)cc(O)c3)cc2)cc1?
EC50 [1]: 8.8 µM; CC50 [12]: 179 µM

For Oc1ccc(-c2c(-c3cc(O)cc(O)c3)oc3ccccc23)cc1, which EC50 [1] is on record?
The EC50 was 35 µM.

And the CC50 [12]?
The CC50 was 84.8 µM.

Which EC50 [1] does the source give for Oc1ccc(-c2cc(-c3cc(O)cc(O)c3)on2)cc1 here?
The EC50 was greater than 75 µM.

What does the source list for COc1cc([C@H]2Oc3c(ccc(/C=C/c4cc(O)cc(O)c4)c3OC)[C@@H]2c2cc(O)cc(O)c2)ccc1O?
IC50 (Influenza A virus [9]): 12 µg/mL (≈ 23.3 µM); selectivity ratio [13]: 9.6

What does the source list for Oc1ccc([C@@H]2c3c(O)cc(O)cc3[C@@H]3c4c(cc(O)c5c4[C@@H]2[C@H](c2ccc(O)cc2)[C@H]5c2cc(O)cc(O)c2)O[C@H]3c2ccc(O)cc2)cc1?
EC50 (Influenza A virus [14]): 0.57 µM; CC50 [15]: > 1000 µM

Which CC50 [2] does the source give for OC[C@H]1O[C@@H](Oc2cc(O)cc(/C=C/c3ccc(O)cc3)c2O[C@@H]2O[C@H](CO)[C@@H](O)[C@H](O)[C@H]2O)[C@H](O)[C@@H](O)[C@@H]1O here?
Its CC50 is greater than 200 µg/mL.

And the EC50 [3]?
The EC50 was 176 µg/mL (≈ 310 µM).

And the selectivity ratio [4]?
Its selectivity ratio is greater than 1.13.

Which CC50 [2] does the source give for O=S(=O)([O-])O[C@H]1[C@H](O)[C@@H](O)[C@H](Oc2cc(O)cc(/C=C\c3ccc(O)cc3)c2)O[C@@H]1CO.[Na+] here?
Its CC50 is 98.8 µg/mL.

What about the EC50 [3] of the same compound?
Its EC50 is 84.8 µg/mL.

And the selectivity ratio [4]?
The selectivity ratio was 1.17.

What does the source list for CC(=O)Oc1ccc(/C=C/c2cc(OC(C)=O)cc3c2C(c2cc(OC(C)=O)cc(OC(C)=O)c2)C(c2ccc(OC(C)=O)cc2)O3)cc1 (configuration not stated)?
CC50 [5]: > 10 µM; EC50 (Hepatitis C virus [6]): 10.4 µM; EC50 (Hepatitis C virus [7]): 4.7 µM; EC50 (Hepatitis C virus [8]): 2.37 µM

Which results are given for O=Cc1ccc2c(c1)C(c1cc(O)cc3c1[C@H](c1cc(O)cc(O)c1)[C@@H](c1ccc(O)cc1)O3)[C@H](c1ccc(O)cc1)O2 (some centres not stated)?
EC50 (Influenza A virus [14]): 8.48 µM; CC50 [15]: > 400 µM

With O=S(=O)(O)c1cc(/N=N/c2cc(S(=O)(=O)O)c3ccccc3c2O)ccc1/C=C/c1ccc(/N=N/c2cc(S(=O)(=O)O)c3ccccc3c2O)cc1S(=O)(=O)O as the compound, how does the CC50 [16] read?
The CC50 was 59 µM.

What about the IC50 [17] of the same compound?
Its IC50 is 0.32 µM.

And the IC50 [18]?
Its IC50 is 0.18 µM.

What about the selectivity ratio [19] of the same compound?
The selectivity ratio was 19.2.

What about the EC50 [20] of the same compound?
The EC50 was 3.07 µM.

With Oc1cc(O)cc(-c2ccc3cnccc3c2)c1 as the compound, how does the EC50 [1] read?
The EC50 was greater than 75 µM.

With Nc1ccc(/C=C/c2ccc(N)cc2S(=O)(=O)O)c(S(=O)(=O)O)c1 as the compound, how does the IC50 [17] read?
The IC50 was greater than 111 µM.

And the IC50 [18]?
Its IC50 is greater than 111 µM.

Source: ChEMBL document CHEMBL5233255, “Natural and nature-inspired stilbenoids as antiviral agents” (Eur J Med Chem, 2020)
